# Measurements reported in patent publication US4933349A, “Treating agent for heart failure” (Daiichi Seiyaku Co., Ltd., priority 1987, dated 1990).
# “Also recorded” adds a separate entry of the source. Counter-ions that a name gives are not always drawn.
# Tests used:
# [1] = test system: Heart Failure induced by Myocardial Infarction; experiment: Efficacy in heart failure induced by myocardial infarction (left coronary artery ligation), hemodynamic measurements and ventricle weight; assay type: in vivo, SD-SLC male rats
# Method: Efficacy in Heart Failure induced by Myocardial Infarction SD-SLC male rats (body weight: 272 to 315 g) (purchased from Shizuoka Jikken Dobutsu Kyodo Kumiai) were used as test animals. Intercostal thoracotomy was made on the left chest of the rat anesthesized with pentobarbital (50 mg/kg, i.p.). The left coronary artery was then ligated at the position 2 to 3 mm away from its origin according to the method of Selye et al, Angiology, Vol. 11, 398 (1960). Immediately after confirming that the peripheral cardiac muscle of the open chest rat was involved in ischemia, the opening was closed, and the animal was fed on food and tap water ad lib. As a sham operation group, another group of rats received thoracotomy in the same manner as described above except for carrying out no ligation of the coronary artery. […] A control group orally received 5 ml/kg/day of ion-exchanged water only. On the next day of the final administration of Compound A, a catheter was inserted into the femoral artery and the left ventricle of the rat under anesthesia with Inactin (100 mg/kg, i.p.), and systemic mean blood pressure, maximum rate of increase of the intraventricular pressure (LV dp/dt max), contractile index (LV dp/dt max/p), left ventricular systolic pressure, left ventricular diastolic pressure and heart rate were measured. After completion of these measurements, the heart was excised and divided into the left ventricle (including the septum) and the right ventricle. The wet weight of each ventricle was measured.
# rats = experiment: Acute toxicity in rats (LD50), oral or intravenous; assay type: in vivo
# Description: Acute toxicities of Compound A in rats through oral administration or intravenous injection were as follows.
# [2] = test system: Monocrotaline-Induced Heart Failure Model (Heart Failure induced by Pulmonary Hypertension); experiment: Efficacy in Monocrotaline-induced heart failure model (heart failure induced by pulmonary hypertension); assay type: in vivo, SD-SLC male rats
# Method: Efficacy in Monocrotaline-Induced Heart Failure Model (A Model of Heart Failure induced by Pulmonary Hypertension)
# SD-SLC male rats (body weight: 160 to 190 g) were used. Monocrotaline was dissolved in 1N hydrochloric acid, and the solution was adjusted to a pH of 7.4 with a 1N sodium hydroxide aqueous solution. Distilled water was added thereto to make a 40 mg/ml solution. The solution was subcutaneously administered to the rats at a dose of 40 mg/kg to prepare right ventricular insufficient rats.
# Another group of rats was subcutaneously administered with 1 ml/kg of physiological saline only and served as intact control.
# Compound A was dissolved in distilled water. Six hours from the administration of Monocrotaline, the solution was orally administered to the test animals at a single daily dose of 10 mg/kg for consecutive 1 month (6 days per week). As a control group, the right ventricular insufficient rats orally received 5 ml/kg of distilled water only.
# On the next day of the final administration of Compound A, a catheter was inserted into the right ventricle under anesthesia with pentobarbital (50 mg/kg, i.p.), and the right ventricular systolic pressure was measured. Thereafter, the heart was excised, divided into the left ventricle (including the septum) and the right ventricle, and the wet weight of each ventricle was determined. The results obtained are given in Table 3, as expressed as mean±S.E.
# [3] = 10 mg/kg p.o. daily, 6 times per week, 1 month, mean±S.E., n = 7
# [4] = 10 mg/kg p.o. daily, 6 times per week, 1 month, mean±S.E., n = 7, ** P < 0.01 vs sham, # P < 0.05 vs control group
# [5] = coronary artery ligation, 1 month
# [6] = wet weight after 10 mg/kg p.o. daily, 1 month, mean±S.E., n = 7, * P < 0.05 vs control group
smiles,measurement,setting,value
"O=C(O)c1ccc2c(c1)CCC(Cn1ccnc1)C2 (stereo not shown) [Compound A, 6-(1-Imidazolylmethyl)-5,6,7,8-tetrahydronaphthalene-2-carboxylic acid hydrochloride hemihydrate]",Heart Rate,[1]; [3],399 ± 14 min⁻¹
same,Mean Blood Pressure,[1]; [3],132 ± 5 mmHg
same,Left Ventricular Systolic Pressure,"[1]; 10 mg/kg p.o. daily, 6 times per week, 1 month, mean±S.E., n = 7, * P < 0.05 vs sham operation group",143 ± 6 mmHg
same,Contractile Index (LV dp/dt max/p),[1]; [4],79 ± 5 s⁻¹
same,Left Ventricular Diastolic Pressure,[1]; [4],12.0 ± 3.2 cmH2 O
same,Contractile index (result in words),[1]; [5],inhibition on reduction of contractile index
same,Left ventricular diastolic pressure (result in words),[1]; [5],inhibition on reduction of contractile index and on elevation of left ventricular diastolic pressure was observed
same,Ventricle weight / cardiac hypertrophy (result in words),"[1]; coronary artery ligation, 1 month, hydrochloride hemihydrate",increase of the ventricle weight can be suppressed significantly; also recorded: inhibit cardiac hypertrophy
same,Blood pressure (result in words),[1]; long-term administration,without adversely affecting the blood pressure
same,Cardiac contractility and pressure load to the heart (result in words),[1]; long-term administration,improved reduction of cardiac contractility and relieved pressure load to the heart
same,"Weight of Ventricle, Right","[1]; wet weight after 10 mg/kg p.o. daily, 1 month, mean±S.E., n = 7",0.361 ± 0.028 g
same,"Weight of Ventricle, Left",[1]; [6],0.861 ± 0.029 g
same,"Weight of Ventricle, Total",[1]; [6],1.222 ± 0.052 g
same,LD50,"rats; female rats, i.v.",783 mg
same,LD50,"rats; female rats, p.o.",1994 mg
same,LD50,"rats; male rats, i.v.",807 mg
same,LD50,"rats; male rats, p.o.",2438 mg
same,Right Ventricular Systolic Pressure,"[2]; 10 mg/kg p.o. daily, 6 days per week, 1 month, mean±S.E., N = 7, * P < 0.05 vs intact control, # P < 0.05 vs control group",46.9 ± 4.9 mmHg
same,Right Ventricle Weight/Left Ventricle Weight,"[2]; 10 mg/kg p.o. daily, 6 days per week, 1 month, mean±S.E., N = 7, ** P < 0.01 vs intact control group",0.41 ± 0.04
same,Right ventricular hypertrophy / cardiac hypertrophy (result in words),"[2]; Monocrotaline, 1 month",showed a tendency to inhibit the right ventricular hypertrophy
same,Right ventricular systolic pressure (result in words),"[2]; Monocrotaline, 1 month",significantly inhibited the increase in the right ventricular systolic pressure
same,Improvement of heart failure induced by pulmonary hypertension (result in words),[2]; long-term administration,exhibited improvements of heart failure induced by pulmonary hypertension
